Measured values published in patent US20240052300A1, “DIFFUSION GRADIENT ASSAY FOR ANTI-CD3-CONTAINING MOLECULES” (priority 2020, published 2024).
Side-chain parts run from the residue outwards. [ ]: non-standard residue; d: D form. pGlu = O=C1CC[C@@H](C(=O)O)N1

Key:
[1] = tested on: recombinant canonical BiTE® protein; test: Size exclusion chromatography with fluorescence detection of CD3-AF488 bound to secreted BiTE; assay type: binding; conditions: secretion medium mixed with reagent, capture chromatography, FIG. 1B
Protocol: 100 μl of 0.2 μm filtrated mammalian cell culture samples containing expressed BiTE® constructs featuring human CD3e binding binders were mixed with 2.5 μl peptide-fluorochrome conjugate and transferred into autosampler vials. The vials were placed onto an autosampler connected to an Ultra High Performance Liquid Chromatography ACQUITY UPLC device (Waters, Eschborn, Germany) featuring a fluorescence detector. An analytical size exclusion chromatography BEH200 SEC 1.7 μm column (Waters, Eschborn, Germany) was connected to the UHPLC and equilibrated with a water-based buffer system containing 10 mM Citric Acid, 75 mM Lysine HCl, adjusted to pH 7.0. 10 μl of each prepared sample were applied to the column and eluted using isocratic elution. Detection was performed by using fluorescence detection at 490 nm excitation and 520 nm emission wavelength. […] Both, unpurified secretion medium and purified material were subsequently analyzed by size exclusion chromatography equipped with fluorescence detector (FIG. 1B, C). This setup allowed monitoring of the elution profile of the CD3-AF488 peptide and its bound protein complexes in the context of the whole protein content present in analyzed samples. The UV absorbance (A280 nm) elution profile of purified material allowed for identification of BiTE® monomers, dimers and HMW species (FIG. 1B).

IgG-fusion protein = conditions: day 5 on chip; FIG. 3A-C
Protocol: (§1) The CD3 diffusion assay peptide reagent was resuspended in DMSO at 1 mg/ml and stored protected from light at −20° C. for long term storage. For short term storage the assay reagent was further diluted to 4 μg/ml in PBS and stored at 4° C. Prior executing the diffusion gradient assay to detect BiTE® secretion on nanofluidic chip the CD3 diffusion assay reagent was diluted in cell culture medium to 0.2 μg/ml concentration, filtered through 22 μm filter, transferred to 96 well plate and incorporated on the chip. The assay reagent was perfused on the chip at 0.014 μl/sec flow rate for the duration of 45 minutes. In FIG. 4, once the equilibration step was complete the assay reagent was flushed out with 250 μl of cell culture medium at a 20/sec flow rate followed by an additional flush with the cell culture medium at the 0.1667 μl/sec flow rate for the duration of 20 mins. The chip was then imaged through TRED filter cube using 900 ms exposure time and 100% illumination settings.
(§2) In FIG. 2, the CD3 diffusion assay reagent was used at 0.125 μg/ml final concentration. […]
(§3) For CD3 diffusion assays shown in FIGS. 3 and 4, the reference assay was run on an empty chip in order to generate reference images used for normalizing the CD3 diffusion assay score against chip position effects and background fluorescence signal. […]
(§4) Next, the specificity of the BiTE® diffusion gradient assay was assessed. […]

[2] = tested on: BiTE® recombinant protein
Protocol: The ability of the CD3-AF594 peptide conjugate to be used for diffusion gradient assays to detect secretion of recombinant CD3 binders on Berkeley Light's nanofluidic chip (FIG. 2A) was assessed next. Cells expressing the BiTE® modality were loaded onto a BLI platform using a standard cell line development workflow. Single cells were deposited in Nanopens™, and subsequently cultured under perfusion for the duration of 6 days. The CD3 reagent was used in a diffusion gradient assay using optimized settings as described herein.

BiTE®-Fc fusion = test: On-chip CD3 diffusion gradient assay, BiTE-Fc secreting cells; conditions: day 5 on chip; FIG. 3A,B
Protocol: as §1, §2, §3, §4

Substance	complex formation with BiTE® recombinant protein (fluorescent SEC elution profile) [1]	detection of secretion of the IgG-fusion protein (IgG-fusion protein)	fluorescent signal in pens with BiTE® expressing cells vs empty pens ([2]; 6 days perfusion culture, reagent 0.125 μg/ml, FIG. 2B)	detection of secretion of BiTE® expressing cell lines ([2]; day 5 on chip, FIG. 3A-C)	detection of secretion of the BiTE®-Fc protein product (BiTE®-Fc fusion)
CD3-AF488 peptide ([pGlu]DGNEEMGGC([C5 maleimide-Alexa Fluor 488])-NH2)	formed a complex with the BiTE® recombinant protein	–	–	–	–
Pyroglutamate-DGNEEMGGC-AF594 [CD3-AF594 conjugate]	–	failed to detect secretion	High fluorescent signal	efficiently detected secretion	detected
